# Patent US20030157704A1, “Reagents and methods for identifying and modulating expression of genes regulated by CDK inhibitors” (priority 2001, published 2003)
# Tests used:
# Format in all cases: cell-based, human
# NK4 promoter = assay: Luciferase assay in LuNK4p21 cell line (NK4 promoter-luciferase, IPTG-inducible p21)
# Protocol: This assay was performed as follows. Cells were plated at a density of 40,000 cells/well in 12 well plates in 1 mL of media containing penicillin/streptomycin, glutamine and 10% fetal calf serum (FCS). After attachment, cells were treated with 50 μM IPTG or left untreated for different periods of time. Luciferase activity was then measured as described in Example 8 above. An additional aliquot was removed from the cell lysate to measure protein concentration using the Bio-Rad protein assay kit (Bradford assay). Luciferase activity for each sample was normalized to protein content and expressed as luciferase activity/μg protein.
# Luciferase assays were performed substantially as described in Example 9. Luciferase activity was measured after 16 hrs of incubation with or without 50 μM IPTG, followed by an additional 20 hr treatment in the presence or in the absence of 20 mM sodium salicylate, 1 mM sulindac, or 10 mM aspirin. […] NSAID concentrations were based on the pharmacologic concentrations of these agents in the serum of patients required for their anti-inflammatory properties (Yin et al., 1998, ibid.).
# HS 15.T cells = assay: Mitogenic activity assay, 3H-thymidine incorporation; conditions: 60 hr in media then 24 hrs 3H-thymidine
# Protocol: To verify the induction of secreted mitogenic and anti-apoptotic factors by p21, conditioned media from IPTG-treated HT1080 p21-9 cells were tested to investigate whether they would have an effect on cell growth and apoptosis. In these experiments, conditioned media were prepared by plating 10^6 HT1080 p21-9 cells per 15 cm plate in the presence of DMEM/10% FCS. The next day, IPTG was added to a final concentration of 50 μM, and this media was replaced three days later with DMEM supplemented with 0.5% FCS and 50 μM IPTG. Two days later (days 3-5 of IPTG treatment), this conditioned media was collected and stored at 4° C. up to 15 days before use. Control media were prepared by adding IPTG-free DMEM/0.5% FCS to untreated cells grown to the same density as IPTG-treated cells and collecting the media two days thereafter.
# The slow-growing human fibrosarcoma cell line HS 15.T was used to detect mitogenic activity in these conditioned media. For mitogenic activity assays, both types of conditioned media, as well as fresh media and 1:1 mixtures of conditioned media and fresh media were used to test mitogenic activity. In these experiments, the conditioned media were supplemented with 1% or 2% FCS. […] Cells were then collected and their ^3H-thymidine incorporation determined as described by Mosca et al. (1992, Mol. Cell. Biol. 12: 4375-4383).
# HT1080 p21-9 cells = assay: Cell cycle distribution by FACS analysis of DNA content; conditions: 24 hrs of IPTG treatment
# Protocol: Cell cycle distribution was determined using FACS analysis of DNA content after staining with propidium iodide as described by Jordan et al. (1996, Cancer Res. 56: 816-825) using Becton Dickinson FACSort. Cell cycle distribution stabilized after 24 hrs of IPTG treatment. By this time, 42-43% of IPTG-treated cells were arrested in G1 and G2, respectively, and about 15% of the cells were arrested with S-phase DNA content. IPTG-treated HT1080 p21-9 cells also developed morphological senescence markers (enlarged and flattened morphology and increased granularity), as well as SA-β-gal activity (Chang et al., 1999, ibid.).
smiles,measurement,setting,value
"CC(C)S[C@@H]1O[C@H](CO)[C@H](O)[C@H](O)[C@H]1O [IPTG, isopropyl-β-thiogalactoside]",treatment period at which most of the induction is achieved,NK4 promoter; 50 μM IPTG,17 h
same,increase of luciferase expression,"NK4 promoter; 50 μM IPTG, absence of NSAID",3-4 fold
same,IPTG concentration at which most of the induction is achieved,NK4 promoter; 24 hrs of IPTG treatment,5 µM
same,increase in luciferase levels in IPTG-treated cells,NK4 promoter; LuNK4p21 cell line,approximately 3 fold
same,3H-thymidine incorporation,HS 15.T cells,no effect
same,"cells arrested in G1 and G2, respectively",HT1080 p21-9 cells,42-43%
same,cells arrested with S-phase DNA content,HT1080 p21-9 cells,about 15%
